# From US10584351B2, “Vectors conditionally expressing therapeutic proteins, host cells comprising the vectors, and uses thereof” (Intrexon Corporation, priority 2010, dated 2020)
# What was measured:
# [1] = test system: PAN02 pancreatic cancer cells; test: Ad-RTS-mIL12 in the pancreatic cancer (PAN02) model; format: in vivo, mouse; conditions: activator alone
# Method: Female, 6- to 8-week-old C57b/6 immuno competent mice were inoculated subcutaneously (s.c.) with syngenic PAN02 pancreatic cancer cells (ATCC). Six days post cell inoculation, the mice were randomized into groups of five animals each in four groups—no treatment, activator (RG-115932) alone, Ad-RTS-mIL12 alone and Ad-RTS-mIL12 plus activator. The cohorts receiving activator ligand were fed 2018 Teklad Global 18% Protein Rodent Diet chow (Harlan Laboratories) blended with activator (1000 mg/kg chow) ad libitum. Cohorts receiving treatment with Ad-RTS-mIL12 alone or no treatment continued to receive 2018 Teklad Global 18% Protein Rodent Diet chow. Mice received treatment with a single intratumoral (i.t.) injection of Ad-RTS-mIL12 at dose level of 1e10 vp/100 ul in PBS, on Day 7 and Day 14 post tumor cell implantation. The tumor size averaged […] at the time of vector treatment initiation.
# Tumor size and body weight of each mouse were monitored three times a week until the end of experiment. The experiment was terminated when the mice tumor size exceeded 600 mm^3. Since pancreatic tumors grow very slowly, we defined […]. The tumor growth in mice receiving no treatment was normal.
# [2] = test system: breast cancer (4T1) cells; test: Ad-RTS-mIL12 in the breast cancer (4T1) model; format: in vivo, mouse; conditions: activator ligand alone, Day 26
# Method: Six- to eight-week-old female BalbC mice were purchased from Charles River Laboratories or Harlan (USA). Animal care and experimental procedure were performed according to the Intrexon's Institutional Animal Care and Use Committee guideline.
# Murine breast carcinoma (4T1) cell lines were purchased from ATCC (Manassas, Va.). The 4T1 cells were grown in Roswell Park Memorial Institute medium (RPMI) 1640 (ATCC, Manassas, Va. The medium was supplemented with heat-inactivated fetal calf serum (FCS) 10% v/v, 2-mM L-glutamine (Atlanta Biologicals, Inc, Lawrenceville, Ga.), 100 IU/ml penicillin G, and 100 μg/ml streptomycin. The cells were grown at 37° C. in 5% C02. All cell lines were routinely tested and found to be free of mycoplasma.
# Female, 6- to 8-week-old BALB/c immune-competent mice were inoculated subcutaneously (s.c.) with syngenic breast cancer (4T1) cells, 1e5 cells/50 ul. Eight days post cell inoculation, the mice were randomized into groups of five animals each in four groups—no treatment, activator alone, Ad-RTS-mIL12 alone and Ad-RTS-mIL12 plus activator. The cohorts receiving activator ligand were fed rodent chow blended with activator (1000 mg/kg) ad libitum. […] Tumor size and body weight of each mouse were monitored three times a week until the end of experiment. […]
# [3] = test system: murine colon cancer cells (CT26Luc); test: Ad-RTS-mIL12 in the colon cancer (CT26Luc) model; format: in vivo, mouse; conditions: activator chow alone
# From the text: Female, 6- to 8-week-old Balb/C immunocompetent mice were inoculated subcutaneously (s.c.) with luciferase expressing stable murine colon cancer cells (CT26Luc). Ten days post cell inoculation, the mice were randomly assigned to treatment and control groups (n=5) for a total of three groups—no treatment (control), activator (L) (RG-115932) alone, and Ad-RTS-mIL12 plus activator. The cohorts receiving activator (L) were fed 2018 Teklad Global 18% Protein Rodent Diet chow (Harlan Laboratories) blended with activator (1000 mg/kg chow) ad libitum. Cohorts receiving no treatment continued to receive 2018 Teklad Global 18% Protein Rodent Diet chow. Treatment was initiated when the tumor reached 40+17 mm^3. The Ad-RTS-mIL12 (1e10 vp/100 ul in PBS) was given to mice through intratumoral (i.t.) injection on Day 11 and 18 post tumor cell inoculation. The activator (L) chow was given to mice 24 hr prior to vector injection. Tumor size and body weight of each mouse were monitored three times a week using calipers and a weight scale until the end of experiment. The experiment was terminated when the mouse tumor size exceeds >2000 mm^3. Data were uploaded into Study Log animal study software.
# [4] = test system: B16F0 murine melanoma cancer cells; test: Ad-RTS-IL-12 dose response study in the mouse B16F0 melanoma model; format: in vivo; conditions: ligand by itself (chow)
# From the text: The anti-tumor effect of Ad-RTS-IL-12 has been evaluated in a series of murine tumor models of melanoma, colorectal, pancreatic, breast, lung and renal cancers. An exemplary dose response experiment is shown below. Immuno-competent female C57bl/6 mice (6-8 week old) were inoculated subcutaneously with B16F0 murine melanoma cancer cells. Eleven days after tumor cell inoculation, when macroscopic tumor nodules were evident (tumor volumes averaged approx. 40 mm^3), the mice were separated into groups of 5 animals each. There were 9 groups including: control saline treated; activator ligand treated; Ad-RTS-mIL12 ([…]) alone and 6 groups were treated with different doses of vector Ad-RTS-mIL-12 (1e7, 1e8, 1e9, 5e9, 1e10, 5e10 viral particles) plus activator ligand. Mice in the +ligand groups were provided 100 mg/kg activator ligand in 2018 Teklad Global 18% Protein Rodent Diet (Harlan Laboratories) chow (1000 mg ligand/kg chow) one day before the vector administration. The mice in control groups received 2018 Teklad Global 18% Protein Rodent Diet chow. A single administration of Ad-RTS-mIL12 in 100 ul PBS was injected into tumor on day 12. Tumor volume and body weights were measured every 2-3 days using calipers and a weight scale, and the animals were followed until control tumors reached 2000 mm^3. Data were uploaded into Study Log animal study software.
# [5] = test system: murine Lewis lung carcinoma cells (LLC); test: Ad-RTS-mIL12 in the Lewis lung carcinoma (LLC) model; format: in vivo, mouse; conditions: activator (L) chow alone
# From the text: Female, 6- to 8-week-old C57b/6 immunocompetent mice were inoculated subcutaneously (s.c.) with murine Lewis lung carcinoma cells (LLC). Five days post cell inoculation, the mice were randomized and assigned to treatment and control groups (n=5) for a total of four groups—no treatment (control), activator (RG-115932) alone, AdRTS-mIL12 alone and Ad-RTS-mIL12 plus activator. The cohorts receiving activator (L) were fed (2018 Teklad Global 18% Protein Rodent Diet (Harlan Laboratories) chow blended with activator (1000 mg/kg chow) ad libitum. Cohorts receiving treatment with Ad-RTS-mIL12 alone or no treatment continued to receive a regular diet. Treatment was initiated when the tumor reached 28±6 mm^3. The Ad-RTS-mIL12 (1e10 vp/100 ul in PBS) was given to mice through intratumoral (i.t.) injection on Day 6, 9 and 13 post tumor cell inoculation. Activator chow (L) was started to given to mice 24 hr prior to vector administration. Tumor size and body weight of each mouse were monitored three times a week using calipers and a weight scale until the end of experiment. The experiment was terminated when the mice tumor size exceeded >1200 mm^3. Data were uploaded into Study Log animal study software.
# [6] = test system: murine melanoma cancer cells (B16F0); test: Ad-RTS-mIL12 with different activator doses in the melanoma (B16F0) model; format: in vivo, mouse; conditions: activator chow alone
# Method: Female, 6- to 8-week-old C57b/6 immunocompetent mice were inoculated subcutaneously (s.c.) with murine melanoma cancer cells (B16F0). Ten days post cell inoculation, the mice were randomly assigned to treatment and control groups (n=5) for a total of nine groups: no treatment (control), activator (L) (RG-115932) alone, and AdRTS-mlL12 alone, and Ad-RTS-mIL12 with different activator dose (50, 100, 250, 500 and 1000 mg/kg) of ligand. The cohorts receiving activator (L) were fed rodent 2018 Teklad Global 18% Protein Rodent Diet chow blended with activator (1000 mg/kg chow) ad libitum. Cohorts receiving treatment with Ad-RTS-mIL12 alone or no treatment continued to receive a regular 2018 Teklad Global 18% Protein Rodent Diet chow diet. Treatment was initiated when the tumor reached […]. A single dose of Ad-RTSmIL12 (1e10 vp/100 ul in PBS) was given to mice through intratumoral (i.t.) injection on Day 13 post tumor cell inoculation. The activator (L) chow was given to mice 24 hr prior to vector injection. Tumor size and body weight of each mouse were monitored three times a week using calipers and a weight scale until the end of experiment. The experiment was terminated when the tumor size exceeded >2000 mm^3. Data were uploaded into Study Log animal study software.
smiles,measurement,setting,value
"CCC[C@@H](N(NC(=O)c1cccc(OC)c1CC)C(=O)c1cc(C)cc(C)c1)C(C)(C)C [RG-115932, (R)-3,5-Dimethyl-benzoic acid N-(1-tert-butyl-butyl)-N′-(2-ethyl-3-methoxy-benzoyl)-hydrazide]",tumor growth delay,[1],minor tumor growth delay
same,tumor growth inhibition relative to control,[2],22%
same,tumor growth inhibition relative to control,[2]; listed as activator ligand (L),35%
same,tumor growth,[3],did not inhibit tumor growth
same,anti-tumor effect,[4],no effect
same,tumor growth kinetics versus control,[5],approximately similar tumor growth kinetics
same,anti-tumor activity,[6],did not have anti-tumor activity
